# Test results published in the supplement of paper PMC10307832.
# How the values were obtained:
# Assay in all cases: relative viability (nuclei count vs DMSO), 5 days (fraction); higher = more cells survive
# Trametinib + Linsitinib = compound: CC(=O)Nc1cccc(-n2c(=O)n(C3CC3)c(=O)c3c(Nc4ccc(I)cc4F)n(C)c(=O)c(C)c32)c1 [Trametinib] + C[C@]1(O)C[C@@H](c2nc(-c3ccc4ccc(-c5ccccc5)nc4c3)c3c(N)nccn32)C1 [Linsitinib] (partner 1 µM)
# In short: (§1)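 A single step with final 0.05% Triton X-100, 1% formaldehyde and 1 ug/ml Hoechst fixed the cells and stained nuclei 5 days after treatment. Lung cancer cell lines in 1536-well plates had been treated by pin tool the day after seeding with one drug alone or a fixed anchor-drug dose plus five library-drug doses (not always all listed) in √10 steps, and nuclei were counted on 4× images. Relative viability is the ratio of nuclei in treated wells to nuclei in vehicle wells, taken as the median of duplicate plates.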
# Trametinib + Pictilisib = compound: CC(=O)Nc1cccc(-n2c(=O)n(C3CC3)c(=O)c3c(Nc4ccc(I)cc4F)n(C)c(=O)c(C)c32)c1 [Trametinib] + CS(=O)(=O)N1CCN(Cc2cc3nc(-c4cccc5[nH]ncc45)nc(N4CCOCC4)c3s2)CC1 [Pictilisib] (partner 1 µM)
# In short: as §1
# [1] = compound: CN1C=C(C2=CC=CC=C21)/C=C\3/C4=C(C=CC=N4)NC3=O + Nc1nc2[nH]cc(CCc3ccc(C(=O)N[C@@H](CCC(=O)O)C(=O)O)cc3)c2c(=O)[nH]1 [Pemetrexed] (partner 0.2 µM)
# In short: as §1
# Trametinib + Phenformin = compound: CC(=O)Nc1cccc(-n2c(=O)n(C3CC3)c(=O)c3c(Nc4ccc(I)cc4F)n(C)c(=O)c(C)c32)c1 [Trametinib] + N=C(N)NC(=N)NCCc1ccccc1 [Phenformin] (partner 250 µM)
# In short: as §1
cell line,measurement,setting,value
UMC-11,relative viability,Trametinib + Linsitinib; first compound 0.0025 µM,1.01
same,relative viability,Trametinib + Linsitinib; first compound 0.007906 µM,1.04
same,relative viability,Trametinib + Linsitinib; first compound 0.025 µM,0.929
same,relative viability,Trametinib + Linsitinib; first compound 0.07906 µM,1.07
same,relative viability,Trametinib + Linsitinib; first compound 0.25 µM,0.974
same,relative viability,Trametinib + Pictilisib; first compound 0.0025 µM,0.662
same,relative viability,Trametinib + Pictilisib; first compound 0.007906 µM,0.785
same,relative viability,Trametinib + Pictilisib; first compound 0.025 µM,0.297
same,relative viability,Trametinib + Pictilisib; first compound 0.07906 µM,0.709
same,relative viability,Trametinib + Pictilisib; first compound 0.25 µM,0.663
same,relative viability,[1]; first compound 0.02 µM,0.655
same,relative viability,[1]; first compound 0.06325 µM,0.744
same,relative viability,[1]; first compound 0.2 µM,0.801
same,relative viability,[1]; first compound 0.6325 µM,0.857
same,relative viability,[1]; first compound 2 µM,0.936
same,relative viability,Trametinib + Phenformin; first compound 0.0025 µM,0.366
same,relative viability,Trametinib + Phenformin; first compound 0.007906 µM,0.328
same,relative viability,Trametinib + Phenformin; first compound 0.025 µM,0.28
same,relative viability,Trametinib + Phenformin; first compound 0.07906 µM,0.309
same,relative viability,Trametinib + Phenformin; first compound 0.25 µM,0.291
